pIC50: −log10 of the molar value.

This is an account of results in patent US9108944B2, “Androgen receptor modulators and uses thereof” (ARAGON PHARMACEUTICALS, INC., priority 2010, dated 2015).

In experiment [1] the target is T1, AR-VP16 (Homo sapiens, UniProt P10275).
T1 sequence (P10275 560-920 limits assumed): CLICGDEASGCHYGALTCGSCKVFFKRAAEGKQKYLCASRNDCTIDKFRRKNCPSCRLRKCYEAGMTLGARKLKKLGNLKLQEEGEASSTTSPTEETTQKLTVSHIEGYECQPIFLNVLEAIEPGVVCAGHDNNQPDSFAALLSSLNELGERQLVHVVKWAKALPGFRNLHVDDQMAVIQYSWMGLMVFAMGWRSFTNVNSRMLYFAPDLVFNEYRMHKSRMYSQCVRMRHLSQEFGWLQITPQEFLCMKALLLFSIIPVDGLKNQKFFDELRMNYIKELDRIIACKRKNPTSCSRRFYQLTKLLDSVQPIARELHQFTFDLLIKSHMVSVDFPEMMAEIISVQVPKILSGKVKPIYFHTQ
Put plainly: AR-VP16 DNA Binding Assay, antagonist mode (HepG2 cells, 0.1 nM R1881). It counts as cell-based. In short, it runs like this:
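HepG2 cells transiently transfected with AR-VP16 (Lipofectin), incubated overnight, then treated with compound in RPMI with charcoal-stripped serum. Antagonist mode adds R1881 at 0.1 nM final. Cells lysed after 48 h incubation for read-out.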

Experiment [2] deals with T1, AR-VP16. Put plainly: AR-VP16 DNA Binding Assay, agonist mode (HepG2 cells). The following applies: Emax >20x DMSO control = agonist. It counts as cell-based.

For the compound `N#Cc1ncc(N2C(=O)C3(CCC3)N(c3ccc(C(=O)NCCCN4CCCC4)c(F)c3)C2=S)cc1C(F)(F)F` [Compound 237, 4-(7-(6-Cyano-5-(trifluoromethyl)pyridin-3-yl)-8-oxo-6-thioxo-5,7-diazaspiro[3.4]octan-5-yl)-2-fluoro-N-(3-(pyrrolidin-1-yl)propyl)benzamide], in experiment [1], the pIC50 is above 6.00. The “ARVP16 DNA Binding Assay (Agonist mode): Agonist?” value (shortened to “ARVP16 DNA Binding Assay”) in experiment [2] is listed as “No (Agonist defined as a compound whose Emax in the ARVP16 DNA Binding Assay (Agonist mode) is >20x DMSO control)”.
As to `N#Cc1ncc(N2C(=O)C3(CCC3)N(c3ccc(C(=O)NCCc4ccncc4)c(F)c3)C2=S)cc1C(F)(F)F` [Compound 238, 4-(7-(6-Cyano-5-(trifluoromethyl)pyridin-3-yl)-8-oxo-6-thioxo-5,7-diazaspiro[3.4]octan-5-yl)-2-fluoro-N-(2-(pyridin-4-yl)ethyl)benzamide], the pIC50 in experiment [1] is below 6.00. For the same compound, in experiment [2], the “ARVP16 DNA Binding Assay” value is “No (Agonist defined as a compound whose Emax in the ARVP16 DNA Binding Assay (Agonist mode) is >20x DMSO control)”.
Compound `N#Cc1ncc(N2C(=O)C3(CCC3)N(c3ccc(F)c(C(=O)NCCc4ccccn4)c3)C2=S)cc1C(F)(F)F` [Compound 239, 5-(7-(6-Cyano-5-(trifluoromethyl)pyridin-3-yl)-8-oxo-6-thioxo-5,7-diazaspiro[3.4]octan-5-yl)-2-fluoro-N-(2-(pyridin-2-yl)ethyl)benzamide] gave a pIC50 in experiment [1] below 6.00. The “ARVP16 DNA Binding Assay” value in experiment [2] is recorded as “No (Agonist defined as a compound whose Emax in the ARVP16 DNA Binding Assay (Agonist mode) is >20x DMSO control)”.
Compound `N#Cc1ncc(N2C(=O)C3(CCC3)N(c3ccc(F)c(C(=O)NCCc4cccnc4)c3)C2=S)cc1C(F)(F)F` [Compound 240, 5-(7-(6-Cyano-5-(trifluoromethyl)pyridin-3-yl)-8-oxo-6-thioxo-5,7-diazaspiro[3.4]octan-5-yl)-2-fluoro-N-(2-(pyridin-3-yl)ethyl)benzamide] showed a pIC50 in experiment [1] below 6.00. In addition, the “ARVP16 DNA Binding Assay” value in experiment [2] is listed as “No (Agonist defined as a compound whose Emax in the ARVP16 DNA Binding Assay (Agonist mode) is >20x DMSO control)”.
For `N#Cc1ncc(N2C(=O)C3(CCC3)N(c3ccc(F)c(C(=O)NCCc4ccncc4)c3)C2=S)cc1C(F)(F)F` [Compound 241, 5-(7-(6-Cyano-5-(trifluoromethyl)pyridin-3-yl)-8-oxo-6-thioxo-5,7-diazaspiro[3.4]octan-5-yl)-2-fluoro-N-(2-(pyridin-4-yl)ethyl)benzamide], in that order: below 6.00 and “No (Agonist defined as a compound whose Emax in the ARVP16 DNA Binding Assay (Agonist mode) is >20x DMSO control)”.
The compound `N#Cc1ncc(N2C(=O)C3(CCC3)N(c3ccc(C(=O)NCCN4CCOCC4)c(F)c3)C2=S)cc1C(F)(F)F` [Compound 242, 4-(7-(6-Cyano-5-(trifluoromethyl)pyridin-3-yl)-8-oxo-6-thioxo-5,7-diazaspiro[3.4]octan-5-yl)-2-fluoro-N-(2-morpholinoethyl)benzamide] showed a pIC50 in experiment [1] above 6.00. The “ARVP16 DNA Binding Assay” value in experiment [2] is given as “No (Agonist defined as a compound whose Emax in the ARVP16 DNA Binding Assay (Agonist mode) is >20x DMSO control)”.
In the same order, the values of `CN1CCN(CCNC(=O)c2ccc(N3C(=S)N(c4cnc(C#N)c(C(F)(F)F)c4)C(=O)C34CCC4)cc2F)CC1` [Compound 243, 4-(7-(6-Cyano-5-(trifluoromethyl)pyridin-3-yl)-8-oxo-6-thioxo-5,7-diazaspiro[3.4]octan-5-yl)-2-fluoro-N-(2-(4-methylpiperazin-1-yl)ethyl)benzamide] are below 6.00 and “No (Agonist defined as a compound whose Emax in the ARVP16 DNA Binding Assay (Agonist mode) is >20x DMSO control)”.
In the same order, the values of `N#Cc1ncc(N2C(=O)C3(CCC3)N(c3ccc(C(=O)NCCc4cccnc4)c(F)c3)C2=S)cc1C(F)(F)F` [Compound 244, 4-(7-(6-Cyano-5-(trifluoromethyl)pyridin-3-yl)-8-oxo-6-thioxo-5,7-diazaspiro[3.4]octan-5-yl)-2-fluoro-N-(2-(pyridin-3-yl)ethyl)benzamide] are above 6.00 and “No (Agonist defined as a compound whose Emax in the ARVP16 DNA Binding Assay (Agonist mode) is >20x DMSO control)”.
For `CCOC(=O)CNC(=O)c1ccc(N2C(=S)N(c3cnc(C#N)c(C(F)(F)F)c3)C(=O)C23CCC3)cc1F` [Compound 245, Ethyl 2-(4-(7-(6-cyano-5-(trifluoromethyl)pyridin-3-yl)-8-oxo-6-thioxo-5,7-diazaspiro[3.4]octan-5-yl)-2-fluorobenzamido)acetate], in that order: below 6.00 and “No (Agonist defined as a compound whose Emax in the ARVP16 DNA Binding Assay (Agonist mode) is >20x DMSO control)”.
As to `CCOC(=O)CCNC(=O)c1ccc(N2C(=S)N(c3cnc(C#N)c(C(F)(F)F)c3)C(=O)C23CCC3)cc1F` [Compound 246, Ethyl 3-(4-(7-(6-cyano-5-(trifluoromethyl)pyridin-3-yl)-8-oxo-6-thioxo-5,7-diazaspiro[3.4]octan-5-yl)-2-fluorobenzamido)propanoate], the pIC50 in experiment [1] is below 6.00. For the same compound, the “ARVP16 DNA Binding Assay” value in experiment [2] is reported as “No (Agonist defined as a compound whose Emax in the ARVP16 DNA Binding Assay (Agonist mode) is >20x DMSO control)”.
In the same order, the values of `CCOC(=O)CCCNC(=O)c1ccc(N2C(=S)N(c3cnc(C#N)c(C(F)(F)F)c3)C(=O)C23CCC3)cc1F` [Compound 247, Ethyl 4-(4-(7-(6-cyano-5-(trifluoromethyl)pyridin-3-yl)-8-oxo-6-thioxo-5,7-diazaspiro[3.4]octan-5-yl)-2-fluorobenzamido)butanoate] are below 6.00 and “No (Agonist defined as a compound whose Emax in the ARVP16 DNA Binding Assay (Agonist mode) is >20x DMSO control)”.
For `COCCCNC(=O)c1ccc(N2C(=S)N(c3cnc(C#N)c(C(F)(F)F)c3)C(=O)C23CCC3)cc1F` [Compound 249, 4-(7-(6-Cyano-5-(trifluoromethyl)pyridin-3-yl)-8-oxo-6-thioxo-5,7-diazaspiro[3.4]octan-5-yl)-2-fluoro-N-(3-methoxypropyl)benzamide], in that order: above 6.00 and “No (Agonist defined as a compound whose Emax in the ARVP16 DNA Binding Assay (Agonist mode) is >20x DMSO control)”.
For `COCCN(C)C(=O)c1ccc(N2C(=S)N(c3cnc(C#N)c(C(F)(F)F)c3)C(=O)C23CCC3)cc1F` [Compound 250, 4-(7-(6-Cyano-5-(trifluoromethyl)pyridin-3-yl)-8-oxo-6-thioxo-5,7-diazaspiro[3.4]octan-5-yl)-2-fluoro-N-(2-methoxyethyl)-N-methylbenzamide], in that order: below 6.00 and “No (Agonist defined as a compound whose Emax in the ARVP16 DNA Binding Assay (Agonist mode) is >20x DMSO control)”.
In experiment [1], `N#Cc1ncc(N2C(=O)C3(CCC3)N(c3ccc(F)c(C(=O)NCCN4CCCC4)c3)C2=S)cc1C(F)(F)F` [Compound 251, 5-(7-(6-Cyano-5-(trifluoromethyl)pyridin-3-yl)-8-oxo-6-thioxo-5,7-diazaspiro[3.4]octan-5-yl)-2-fluoro-N-(2-(pyrrolidin-1-yl)ethyl)benzamide] showed a pIC50 below 6.00. Besides, in experiment [2], the “ARVP16 DNA Binding Assay” value is reported as “No (Agonist defined as a compound whose Emax in the ARVP16 DNA Binding Assay (Agonist mode) is >20x DMSO control)”.
For `N#Cc1ncc(N2C(=O)C3(CCC3)N(c3ccc(F)c(C(=O)NCCCN4CCCC4)c3)C2=S)cc1C(F)(F)F` [Compound 252, 5-(7-(6-Cyano-5-(trifluoromethyl)pyridin-3-yl)-8-oxo-6-thioxo-5,7-diazaspiro[3.4]octan-5-yl)-2-fluoro-N-(3-(pyrrolidin-1-yl)propyl)benzamide], in that order: above 6.00 and “No (Agonist defined as a compound whose Emax in the ARVP16 DNA Binding Assay (Agonist mode) is >20x DMSO control)”.
As to `N#Cc1ncc(N2C(=O)C3(CCC3)N(c3ccc(F)c(C(=O)NCCN4CCOCC4)c3)C2=S)cc1C(F)(F)F` [Compound 253, 5-(7-(6-Cyano-5-(trifluoromethyl)pyridin-3-yl)-8-oxo-6-thioxo-5,7-diazaspiro[3.4]octan-5-yl)-2-fluoro-N-(2-morpholinoethyl)benzamide], in experiment [1], the pIC50 is below 6.00. The “ARVP16 DNA Binding Assay” value in experiment [2] is on record as “No (Agonist defined as a compound whose Emax in the ARVP16 DNA Binding Assay (Agonist mode) is >20x DMSO control)”.
For `CN1CCN(CCNC(=O)c2cc(N3C(=S)N(c4cnc(C#N)c(C(F)(F)F)c4)C(=O)C34CCC4)ccc2F)CC1` [Compound 254, 5-(7-(6-Cyano-5-(trifluoromethyl)pyridin-3-yl)-8-oxo-6-thioxo-5,7-diazaspiro[3.4]octan-5-yl)-2-fluoro-N-(2-(4-methylpiperazin-1-yl)ethyl)benzamide], in that order: below 6.00 and “No (Agonist defined as a compound whose Emax in the ARVP16 DNA Binding Assay (Agonist mode) is >20x DMSO control)”.
Compound `N#Cc1ncc(N2C(=O)C3(CCC3)N(c3ccc(C(=O)Nc4ccccc4)c(F)c3)C2=S)cc1C(F)(F)F` [Compound 255, 4-(7-(6-Cyano-5-(trifluoromethyl)pyridin-3-yl)-8-oxo-6-thioxo-5,7-diazaspiro[3.4]octan-5-yl)-2-fluoro-N-phenylbenzamide] gave a negative-log IC50 (pIC50) in experiment [1] above 6.00. The “ARVP16 DNA Binding Assay” value in experiment [2] was “No (Agonist defined as a compound whose Emax in the ARVP16 DNA Binding Assay (Agonist mode) is >20x DMSO control)”.

As a reminder, the pIC50 is the negative decadic logarithm of the IC50, by convention in mol/L.
